Experimental findings from patent US20160136110A1, “Method for Treating a Neurodegenerative Event” (MAKScientific, LLC, priority 2012, published 2016) are described below.

The subject of one assay is GDNF. Kind of assay: GDNF ELISA of hippocampus after kainic acid injection. In kind it is in vivo, rat. The note with it: young rats (PND 22), kainic acid i.p. followed by 8 mg/kg i.p., 24 h; vs vehicle, p<0.02; FIG. 1A. The procedure:
(§1) Young rats (PND 22) were injected i.p. with kainic acid (KA), followed immediately by vehicle (veh) or the FAAH inhibitor, Compound 1 (8 mg/kg, i.p.). After 24 h, hippocampus was rapidly dissected, and the homogenates were centrifuged to obtain supernatant for ELISA measures of GDNF) and BDNF. Standard curves were used to convert measures to pg cytokine per mg supernatant protein (±SEM). Unpaired t-tests: GDNF, *p<0.02; BDNF, ***p<0.001.
(In general: ELISA stands for enzyme-linked immunosorbent assay.)

The next assay concerns BDNF. The assay is described as follows: BDNF ELISA of hippocampus after kainic acid injection. In kind it is in vivo, rat. The conditions noted are these: young rats (PND 22), kainic acid i.p. followed by 8 mg/kg i.p., 24 h; vs vehicle, p<0.001; FIG. 1B. The method, then:
as §1

Assay [1] has as its target T1, rat and/or human FAAH enzyme (UniProt P97612).
T1 sequence (P97612 1-579): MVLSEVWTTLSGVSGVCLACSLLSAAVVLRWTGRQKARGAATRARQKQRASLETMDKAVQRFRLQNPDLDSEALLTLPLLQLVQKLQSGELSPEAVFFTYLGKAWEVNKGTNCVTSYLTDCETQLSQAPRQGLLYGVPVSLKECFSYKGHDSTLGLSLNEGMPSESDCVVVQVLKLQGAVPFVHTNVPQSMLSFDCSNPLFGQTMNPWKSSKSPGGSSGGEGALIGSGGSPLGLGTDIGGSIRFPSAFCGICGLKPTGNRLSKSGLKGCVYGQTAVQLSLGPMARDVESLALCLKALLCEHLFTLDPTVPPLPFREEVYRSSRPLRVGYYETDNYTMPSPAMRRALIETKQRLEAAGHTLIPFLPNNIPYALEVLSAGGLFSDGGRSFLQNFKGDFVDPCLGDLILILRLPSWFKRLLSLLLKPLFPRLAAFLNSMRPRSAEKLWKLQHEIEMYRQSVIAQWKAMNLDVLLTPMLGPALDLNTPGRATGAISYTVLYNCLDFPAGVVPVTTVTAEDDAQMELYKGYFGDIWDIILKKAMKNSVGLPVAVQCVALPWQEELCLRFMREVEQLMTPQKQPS
Kind of assay: FAAH inhibition assay. The conditions noted are these: rat or human FAAH inhibition assay as in Rahn et al. (2011). In kind it is biochemical. The text has this:
Biochem and Behavior 98: 493. […] Particular FAAH inhibitor compounds for use with the invention include those disclosed in the following references: Deng, H (2010) Expert Opin. Drug Discovery 5(10): 961-993 and Blankman (2013) Pharmacol Rev 65:849-871, Seierstad (2008) J. Med. Chem., 51 (23), pp 7327-7343, Ahn (2009) Expert Opin. Drug Discov. 4(7):763-784 and references cited therein.

By IC50 is commonly meant the concentration that inhibits the measured activity by half. A high value points to a need for much substance. Consider `O=C(CCCOc1ccc(OCc2ccccc2)cc1)C(F)(F)F` [Compound 1, 5-(4-(benzyloxy)phenoxy)-1,1,1-trifluoropentan-2-one], for which, in the assay with GDNF, the “GDNF levels in hippocampus (ELISA)” value is “enhances GDNF levels”. In addition, the “BDNF levels in hippocampus (ELISA)” value in the assay on BDNF is recorded as “protects against excitotoxin-induced reduction in BDNF”. This compound also showed an IC50 in assay [1] of 42 nM.
